This passage reports carcinogen call results from PubChem BioAssay AID1259411 (Chemical Carcinogenesis Research Information System (CCRIS), 2018).

Active and inactive are the calls of the source. The rule behind the calls is not given here.

The test system of the series is rodent carcinogenicity bioassays, tumor incidence. Put plainly: CCRIS carcinogenicity studies. As to conditions: Species: HUMAN; Route: INHALATION, ORAL; Tumor Site: Type of Lesion: LUNG. The essentials: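 Archive of carcinogenicity, mutagenicity, tumor promotion and tumor inhibition results drawn from journals, NCI reports and other sources, expert-reviewed; covers 1985-2011 and is no longer updated.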

For `[Cr]`, the carcinogen call was “active; positive”.
